Reference: publication PMC9169222, “Impedance-Based Phenotypic Readout of Transporter Function: A Case for Glutamate Transporters” (Frontiers in Pharmacology, 2022)
Structures can show the parent of a compound that is named as a salt.

What was measured:
[1] = molecular target: T1, EAAT1 (JumpIn-EAAT1 cells) (Homo sapiens, UniProt P43003); assay: Impedance-based phenotypic assay (xCELLigence) on JumpIn-EAAT1 cells; assay type: cell-based; settings: net AUC 0–120 min
T1 construct: expressed in transfected cells; host or cells: Jump In T-REx HEK 293
T1 sequence (P43003 whole entry): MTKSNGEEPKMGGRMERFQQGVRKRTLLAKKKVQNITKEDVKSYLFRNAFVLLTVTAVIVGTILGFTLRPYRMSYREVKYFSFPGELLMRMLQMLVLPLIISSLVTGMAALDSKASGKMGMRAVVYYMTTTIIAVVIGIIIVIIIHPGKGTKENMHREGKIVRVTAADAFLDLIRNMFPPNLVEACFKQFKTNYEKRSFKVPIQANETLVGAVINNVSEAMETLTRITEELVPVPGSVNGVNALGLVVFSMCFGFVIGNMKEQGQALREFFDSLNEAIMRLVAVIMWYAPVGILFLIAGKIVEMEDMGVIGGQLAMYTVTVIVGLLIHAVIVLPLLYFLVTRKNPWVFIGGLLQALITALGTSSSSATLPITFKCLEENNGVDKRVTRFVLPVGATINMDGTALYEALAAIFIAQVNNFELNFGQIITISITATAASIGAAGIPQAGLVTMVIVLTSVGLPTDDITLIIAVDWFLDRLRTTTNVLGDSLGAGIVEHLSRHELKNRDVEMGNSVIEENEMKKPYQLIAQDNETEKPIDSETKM
Method: In short, cells are cultured in medium on gold-plated electrodes in microwell E-plates.
Assays were performed at 37°C and 5% CO2 in 96-well PET E-plates in a total volume of 100 µl per well. Prior to cell seeding, the baseline impedance (Z0) was measured in the recording station in 40 µl (two compound additions) or 45 µl (one compound addition) medium in the presence (+) or absence (−) of 1 μg/ml dox. All compounds were diluted in phosphate-buffered saline (PBS) and added in 5 µl per addition using a VIAFLO 96 handheld electronic 96 channel pipette (INTEGRA Biosciences, Tokyo, Japan). When DMSO was used as a solvent for a compound, the final amount of DMSO was kept at 0.1% per well and was included in the vehicle (PBS/DMSO). All conditions were tested at two technical replicates per plate.
Transiently transfected JumpIn-EAAT1 cells were detached using only PBS/EDTA. The E-plate was left to rest at room temperature for 30 min prior to replacement in the recording station at 37°C and 5% CO2. Cell growth was recorded overnight for 22 h. If a pretreatment was required for the experiment, the cells were pretreated after 22 h with either a concentration of inhibitor or vehicle (PBS/DMSO) and cells were monitored for 60 min. For GPCR antagonist experiments, a maximum concentration of LY341495 (1 µM) was used. […] After the pretreatment, cells were stimulated with substrate or vehicle (PBS). […] After stimulation the impedance was measured for at least 2 h. […] Properly washed plates were re-used up to two times.
Experimental data was recorded using RTCA Software v2.0 or v2.1.1 (ACEA Biosciences). In the RTCA Software CI values were normalized to the time point prior to substrate/agonist stimulation resulting in normalized Cell Index (nCI) values. The nCI data were exported and subsequent analyses and data visualizations were done using GraphPad Prism v9 (GraphPad Software, San Diego, CA, United States). In all experiments, nCI values of vehicle-only conditions were subtracted from all other conditions to correct for vehicle-induced, substrate-independent effects. […] The potency values of substrates and inhibitory potencies of EAAT inhibitors were determined by fitting the net AUC data to a sigmoidal concentration-effect curve with a variable slope.

[2] = molecular target: T2, EAAT4 (JumpIn-EAAT4 cells) (Homo sapiens, UniProt P48664); assay: Impedance-based phenotypic assay on JumpIn-EAAT4 cells; assay type: cell-based; settings: JumpIn-EAAT4, 1 mM L-glu, p = 0.093
T2 construct: expressed in transfected cells; host or cells: Jump In T-REx HEK 293
T2 sequence (P48664 1-564): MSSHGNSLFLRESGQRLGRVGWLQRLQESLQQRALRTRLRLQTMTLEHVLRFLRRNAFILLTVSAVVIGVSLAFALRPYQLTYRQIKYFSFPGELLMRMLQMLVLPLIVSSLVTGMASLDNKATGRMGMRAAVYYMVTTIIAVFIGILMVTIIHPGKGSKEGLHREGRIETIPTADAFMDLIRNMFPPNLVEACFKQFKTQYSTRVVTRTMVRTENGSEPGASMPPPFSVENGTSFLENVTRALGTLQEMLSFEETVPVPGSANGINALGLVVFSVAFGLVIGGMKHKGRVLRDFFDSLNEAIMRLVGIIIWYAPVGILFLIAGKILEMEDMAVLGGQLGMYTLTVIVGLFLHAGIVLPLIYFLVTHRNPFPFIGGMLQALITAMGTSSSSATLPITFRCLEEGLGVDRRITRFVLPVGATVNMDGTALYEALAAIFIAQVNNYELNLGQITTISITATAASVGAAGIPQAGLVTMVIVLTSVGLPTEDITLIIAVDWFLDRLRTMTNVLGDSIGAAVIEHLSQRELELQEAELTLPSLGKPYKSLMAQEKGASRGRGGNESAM
Method: (§1) Label-free whole-cell assays, based on cell-induced changes in impedance, were performed using the xCELLigence real-time cell analyzer (RTCA) system (ACEA Biosciences, San Diego, CA, United States) as described previously ([Vlachodimou et al., 2019]; [Sijben et al., 2021a], [2021b]). In short, cells are cultured in medium on gold-plated electrodes in microwell E-plates. Per well impedance is continuously measured at 10 kHz and is converted to the unitless parameter Cell Index (CI) by the following formula: CI=(Zi−Z0)Ω/15Ω where Zi is the impedance at any given time point and Z0 is the baseline impedance measured at the start of each experiment ([Kho et al., 2015]).
(§2) Assays were performed at 37°C and 5% CO2 in 96-well PET E-plates in a total volume of 100 µl per well. Prior to cell seeding, the baseline impedance (Z0) was measured in the recording station in 40 µl (two compound additions) or 45 µl (one compound addition) medium in the presence (+) or absence (−) of 1 μg/ml dox. […]
On the day of the experiment, JumpIn-EAAT cells grown to 70–80% confluence were trypsinized (0.25% trypsin in PBS/EDTA), counted and seeded in the E-plate in a volume of 50 μl at 60,000 cells/well. […] Cell growth was recorded overnight for 22 h. […] After stimulation the impedance was measured for at least 2 h. […]
Experimental data was recorded using RTCA Software v2.0 or v2.1.1 (ACEA Biosciences). […]

1321N1 cells = assay: Impedance-based phenotypic assay on 1321N1 cells; assay type: cell-based, human; settings: 1 mM
Method: as §1, §2
Experimental data was recorded using RTCA Software v2.0 or v2.1.1 (ACEA Biosciences). […] The potency values of substrates and inhibitory potencies of EAAT inhibitors were determined by fitting the net AUC data to a sigmoidal concentration-effect curve with a variable slope.

N[C@@H](CCC(=O)O)C(=O)O [L-glutamate, L-glutamic acid monosodium salt monohydrate]
Substrate pEC50 ± SEM ([1]; JumpIn-EAAT1, +dox): 3.4 ± 0.0 | EC50 ([1]; JumpIn-EAAT1, −dox, read-out: Substrate pEC50 ± SEM (converted)): 63.1 µM | Response in dox-induced vs non-induced cells [2]: not significant | Cellular response within 180 min (1321N1 cells): did not show a substantial cellular response
